This is an account of results in ChEMBL document CHEMBL3779890, “Novel prodrugs with a spontaneous cleavable guanidine moiety” (Bioorg Med Chem Lett, 2016).

≈ marks a conversion by molar mass, not a printed value.

Data set [1] in a line: Solubility of the compound in water at room temperature after 15 mins by HPLC analysis. The format is physicochemical.
The nature of data set [2]: Prodrug conversion in PBS assessed as half life for 50% release of Quinine in pH 7.4 at 37 degC after 1 hr by ESI-mass spectrometry. The format is ADME. The following applies: buffer, pH 7.4, 1 h.
Data set [3] can be described thus: Stability of the compound in methanol-CH3CN at 4 degC after 1 month by HPLC analysis. The following applies: 730.5 h. The data set is classed as physicochemical.
Data set [4] can be described thus: Prodrug conversion in PBS assessed as half life for 50% release of Phenytoin in pH 7.4 at 37 degC after 1 hr by ESI-mass spectrometry. The data set is classed as ADME. The following applies: buffer, pH 7.4, 1 h.
Data set [5] is described as follows: Prodrug conversion in PBS assessed as half life for 50% release of ritonavir in pH 7.4 at 37 degC after 1 hr by ESI-mass spectrometry. The format is ADME. The following applies: buffer, pH 7.4, 1 h.
Data set [6] is described as follows: Prodrug conversion in PBS assessed as half life for 50% release of Sulfathiazole in pH 7.4 at 37 degC after 1 hr by ESI-mass spectrometry. The data set is classed as ADME. The following applies: buffer, pH 7.4, 1 h.
A short description of data set [7]: Prodrug conversion in PBS assessed as half life for 50% release of Quinine in pH 7.4 at 37 degC by ESI-mass spectrometry. The data set is classed as ADME. The note with it: buffer, TDE = time-dependent effect.
Data set [8] in a line: Prodrug conversion in PBS assessed as half life for 50% release of 2-Aminobenzimidazole in pH 7.4 at 37 degC after 1 hr by ESI-mass spectrometry. The format is ADME. The following applies: buffer, pH 7.4, 1 h.

As usually defined, the solubility is the concentration that dissolves in the medium under given conditions. A higher solubility goes with much dissolved substance. `C=C[C@@H]1CN2CC[C@H]1C[C@H]2[C@H](OC(=O)CCNC(=N)N)c1ccnc2ccc(OC)cc12.O=C(O)C(F)(F)F` showed a solubility at 0.25 h in data set [1] greater than 10000 µg/mL. Further, the t1/2 in data set [2] is on record as 1.1 min. Besides, the Stability result in data set [3] is on record as “Stable”.

Regarding `C[C@H](NC(=N)N)C(=O)N1C(=O)NC(c2ccccc2)(c2ccccc2)C1=O.O=C(O)C(F)(F)F`, the t1/2 in data set [4] is on record as 1.1 min.

Turning to `CC(C)c1nc(CN(C)C(=O)N[C@H](C(=O)N[C@@H](Cc2ccccc2)C[C@H](O)[C@H](Cc2ccccc2)NC(=O)OCc2cncs2)C(C)C)cs1` [RITONAVIR], the t1/2 in data set [5] is 42 h.

Turning to `CN(CC(=O)N1C(=O)NC(c2ccccc2)(c2ccccc2)C1=O)C(=N)N.O=C(O)C(F)(F)F`, the t1/2 in data set [4] stood at 0.78 min.

`O=C1NC(=O)C(c2ccccc2)(c2ccccc2)N1` [PHENYTOIN] registered a solubility at 0.25 h in data set [1] of 6.3 µg/mL (≈ 25 µM).

For the compound `C[C@H](NC(=N)N)C(=O)Nc1ccc(S(=O)(=O)Nc2nccs2)cc1.O=C(O)C(F)(F)F`, the concentration in solution in data set [1] (solubility at 0.25 h) came to 7100 µg/mL. In addition, the Stability result in data set [3] was “Stable”. In addition, the t1/2 in data set [6] is listed as 40 min.

Turning to `C=C[C@@H]1CN2CC[C@H]1C[C@H]2[C@H](OC(=O)CCCN)c1ccnc2ccc(OC)cc12.O=C(O)C(F)(F)F`, in data set [7], the Drug metabolism result is given as “tde”. Besides, in data set [2], the t1/2 stood at 102 min.

The compound `Nc1ccc(S(=O)(=O)Nc2nccs2)cc1.O=C(O)C(F)(F)F` returned a solubility at 0.25 h in data set [1] of 1.4 µg/mL.

As for `N=C(N)NCC(=O)N1C(=O)NC(c2ccccc2)(c2ccccc2)C1=O.O=C(O)C(F)(F)F`, in data set [1], the concentration in solution (solubility at 0.25 h) was 10200 µg/mL. In data set [4], the t1/2 turned out to be 13 min. Further, the Stability result in data set [3] is given as “Stable”.

Regarding `C=C[C@@H]1CN2CC[C@H]1C[C@H]2[C@H](OC(=O)CNC(=N)N)c1ccnc2ccc(OC)cc12.O=C(O)C(F)(F)F`, the t1/2 in data set [2] is given as less than 1 min.

Consider `N=C(N)NCC(=O)Nc1nc2ccccc2[nH]1.O=C(O)C(F)(F)F`, for which, in data set [8], the t1/2 is on record as 38 min.
